The values below come from ChEMBL document CHEMBL4651402, “Screening of ~5500 FDA-approved drugs and clinical candidates for anti-SARS-CoV-2 activity” (2021).

Where “and” joins values, the source holds several entries; their conditions need not be identical. Equal entries are not always repeated. Bounds are passed on as bounds.

Data set [1] concerns SARS-CoV-2. To be noted: vero c1008.
The subject of data set [2] is SARS-CoV-2. The experiment in a line: microbe, parasite or virus in culture. The following applies: Severe acute respiratory syndrome coronavirus 2, Vero C1008, 48 h.
A short description of data set [3]: in vitro. To be noted: chlorocebus sabaeus, Vero E6 (Vero C1008) cells.
Data set [4] has as its system SARS-CoV-2. The experiment in a line: microbe, parasite or virus in culture. The format is functional, organism-based, Chlorocebus sabaeus, Vero C1008.
Data set [5] relates to Vero C1008. To be noted: chlorocebus sabaeus, vero c1008, 48 h.
The mark [6] stands for this setting: Severe acute respiratory syndrome coronavirus 2, Vero C1008, 48 h, read-out: IC50.
The mark [7] stands for this setting: Severe acute respiratory syndrome coronavirus 2, Vero C1008, 48 h, read-out: pIC50 (converted).

Broadly, the pIC50 is the negative decadic logarithm of the IC50, by convention in mol/L. A lower pIC50 goes with a large IC50. As for `COc1cccc([C@@H](C)NCCCc2ccccc2Cl)c1`, the IC50 is greater than 20 µM in data set [1]; 16.6 µM in data set [2]; 16.6 µM in data set [2] (read-out: pIC50 (converted)); greater than 100 µM in data set [4] (setting [6]); greater than 100 µM in data set [4] (setting [7]). In data set [1], this compound showed a negative logarithm of the IC50 (pIC50) of less than 4.7. The CC50 at 48 h in data set [3] (CC50) and in data set [3] (pCC50) was 28.2 µM throughout.
In turn, `CNCC(O)C(O)C(O)C(O)CO.Cc1c(Nc2ncccc2C(=O)O)cccc1C(F)(F)F` gave a negative-log IC50 (pIC50) in data set [1] of less than 4.7.
In data set [1], `CC(C)(NC(=O)O[C@@H]1CN2CCC1CC2)c1csc(-c2ccc(F)cc2)n1` came in with an IC50 greater than 20 µM and a pIC50 of less than 4.7.
In turn, `O=C(O)Cc1cn(-c2ccccc2)nc1-c1ccc(Cl)cc1.O=C(O)Cc1cn(-c2ccccc2)nc1-c1ccc(Cl)cc1.[Ca+2]` returned a negative-log IC50 (pIC50) in data set [1] of less than 4.7.
By pCC50 is commonly meant the negative decadic logarithm of the CC50, by convention in mol/L. Higher therefore signals a small CC50. Regarding `CNC[C@H]1C[C@@H]2c3ccccc3Cc3ccc(F)cc3[C@H]2O1`, the IC50 was greater than 100 µM in data set [2]; greater than 100 µM in data set [2] (read-out: pIC50 (converted)); greater than 100 µM in data set [4] (setting [6]); greater than 100 µM in data set [4] (setting [7]); greater than 50.1 µM in data set [4] (vero c1008, read-out: IC50). The CC50 at 48 h in data set [3] (CC50) and in data set [3] (pCC50) was 19.5 µM each time. The compound also gave a negative logarithm of the IC50 (pIC50) in data set [4] (vero c1008) of less than 4.3. For the same compound, in data set [5] (48 h), the CC50 is roughly 22.4 µM. Moreover, in data set [5] (48 h), the pCC50 is ~ 4.65.
Compound `O=C(O)c1cc(=O)c2c(OCC(O)COc3cccc4oc(C(=O)O)cc(=O)c34)cccc2o1.[NaH]` registered a pIC50 in data set [1] of less than 4.7.
On to `O=c1cnn([C@@H]2O[C@H](CO)[C@@H](O)[C@H]2O)c(=O)[nH]1` [6-AZAURIDINE], for which, in data set [1], the IC50 was greater than 100 µM.
As for `COC(=O)C1=C(C)NC(C)=C(C(=O)OC2CCCN(Cc3ccccc3)C2)C1c1cccc([N+](=O)[O-])c1` (stereo not drawn) [BENIDIPINE], the IC50 in data set [1], in data set [4] (setting [6]) and in data set [4] (setting [7]) was greater than 100 µM throughout. The CC50 at 48 h in data set [3] (CC50) and in data set [3] (pCC50) was 14.8 µM throughout.
In data set [1], `O=[N+]([O-])c1ccc(Cl)c([N+](=O)[O-])c1` [DINITROCHLOROBENZENE] had an IC50 greater than 20 µM and a negative-log IC50 (pIC50) of less than 4.7.
In data set [1], `O=S(=O)(O)c1cc(O)ccc1O` [DOBESILIC ACID] returned a negative-log IC50 (pIC50) of less than 4.7.
`CN(C)c1ccc(O)c2c1C[C@H]1C[C@H]3[C@H](N(C)C)C(O)=C(C(N)=O)C(=O)[C@@]3(O)C(O)=C1C2=O.Cl` [MINOCYCLINE HYDROCHLORIDE]: the negative-log IC50 (pIC50) in data set [1] is reported as less than 4.7.
As for `OC(CNCC(O)C1CCc2cc(F)ccc2O1)C1CCc2cc(F)ccc2O1` (stereo not drawn) [NEBIVOLOL], the IC50 in data set [1] was greater than 20 µM; in data set [2], greater than 10 µM; in data set [2] (read-out: pIC50 (converted)), greater than 10 µM; in data set [4] (setting [6]) it was greater than 100 µM; in data set [4] (setting [7]), greater than 100 µM. The pIC50 in data set [1] is less than 4.7. Besides, the CC50 at 48 h in data set [3] (CC50) and in data set [3] (pCC50) was 8.71 µM throughout.
Turning to `CC(Cc1ccccc1)NCCC(c1ccccc1)c1ccccc1` (stereo not drawn) [PRENYLAMINE], the IC50 in data set [1] was 8.51 µM and > 20 µM; in data set [4] (setting [6]) it was greater than 100 µM; in data set [4] (setting [7]), greater than 100 µM. Moreover, the pIC50 in data set [1] was 5.07 and < 4.7. Further, the CC50 at 48 h in data set [3] (CC50) and in data set [3] (pCC50) was 10.7 µM in each case.
In turn, `CC1(C)[C@H](C(=O)[O-])N2C(=O)C[C@H]2S1(=O)=O.[Na+]` [SULBACTAM SODIUM] had a pIC50 in data set [1] of less than 4.7.
Take `CCCCCCCCNC(C)C(O)c1ccc(SC(C)C)cc1` (stereo not drawn) [SULOCTIDIL]: the IC50 in data set [1], in data set [4] (setting [6]) and in data set [4] (setting [7]) was greater than 100 µM each time. Moreover, the CC50 at 48 h in data set [3] (CC50) was 3.27 µM; in data set [3] (pCC50) it was 3.24 µM.
Turning to `Cc1c(-c2ccccc2)oc2c(C(=O)OC(C)(C)CN3CCCCC3)cccc2c1=O` [TERFLAVOXATE], the IC50 in data set [2], in data set [2] (read-out: pIC50 (converted)), in data set [4] (setting [6]) and in data set [4] (setting [7]) was greater than 100 µM throughout. The CC50 at 48 h in data set [3] (CC50) and in data set [3] (pCC50) was roughly 63.1 µM throughout.
Turning to `CN1CCN(CCCN2c3ccccc3Sc3ccc(S(=O)(=O)N(C)C)cc32)CC1` [THIOPROPERAZINE], the IC50 in data set [2] is 13.2 µM; in data set [2] (read-out: pIC50 (converted)), 13.2 µM; in data set [4] (setting [6]), greater than 100 µM; in data set [4] (setting [7]), greater than 100 µM. In addition, the CC50 at 48 h in data set [3] (CC50) and in data set [3] (pCC50) was 6.31 µM throughout.
Consider `CN1CCN(CC/C=C2/c3ccccc3Sc3ccc(S(=O)(=O)N(C)C)cc32)CC1` [THIOTHIXENE], for which the IC50 in data set [2] is greater than 100 µM; in data set [2] (read-out: pIC50 (converted)), greater than 100 µM; in data set [4] (setting [6]) it was 5.75 µM; in data set [4] (setting [7]) it was 5.75 µM. Moreover, the results for the CC50 at 48 h in data set [3] (CC50) and in data set [3] (pCC50) were 4.96 µM and 4.9 µM, respectively.
For the compound `CCCSc1ccccc1N1CCN(CCCCn2c(=O)[nH]c3ccccc3c2=O)CC1` [TIOPERIDONE], the IC50 in data set [2] was 9.12 µM; in data set [2] (read-out: pIC50 (converted)) it was 9.12 µM; in data set [4] (setting [6]) it was greater than 100 µM; in data set [4] (setting [7]), greater than 100 µM. In addition, the CC50 at 48 h in data set [3] (CC50) and in data set [3] (pCC50) was 7.24 µM each time.
As to `O=C1CC2(CCCC2)CC(=O)N1CCCCN1CCN(c2nsc3ccccc23)CC1` [TIOSPIRONE], the IC50 in data set [2], in data set [2] (read-out: pIC50 (converted)), in data set [4] (setting [6]) and in data set [4] (setting [7]) was greater than 100 µM each time. Also, the CC50 at 48 h in data set [3] (CC50) was 24.6 µM; in data set [3] (pCC50) it was 24.5 µM.
As to `Cn1cncc1[C@@](N)(c1ccc(Cl)cc1)c1ccc2c(c1)c(-c1cccc(Cl)c1)cc(=O)n2C` [TIPIFARNIB], the IC50 in data set [2], in data set [2] (read-out: pIC50 (converted)), in data set [4] (setting [6]) and in data set [4] (setting [7]) was greater than 100 µM in each case. For the same compound, the CC50 at 48 h in data set [3] (CC50) was 13.3 µM; in data set [3] (pCC50), 13.2 µM.
Consider `CC(C)CN(C[C@@H](O)[C@H](Cc1ccccc1)NC(=O)O[C@H]1CO[C@H]2OCC[C@H]21)S(=O)(=O)c1ccc2nc(NC3CCN(C4CCCC4)CC3)sc2c1` [TMC 310911], for which the IC50 in data set [2] is 3.94 µM; in data set [2] (read-out: pIC50 (converted)), 3.89 µM; in data set [4] (setting [6]) it was roughly 9.55 µM; in data set [4] (setting [7]) it was roughly 9.55 µM. Also, the results for the CC50 at 48 h in data set [3] (CC50) and in data set [3] (pCC50) were roughly 13 µM and roughly 12.9 µM, respectively.
Turning to `Cc1cc(C)c2nc(-c3cnc(NCCCC4CCN(C)CC4)nc3C)[nH]c2c1` [TOREFORANT], the IC50 is greater than 25.1 µM in data set [2], greater than 25.1 µM in data set [2] (read-out: pIC50 (converted)), greater than 50.1 µM in data set [4] (setting [6]) and greater than 50.1 µM in data set [4] (setting [7]). Also, the CC50 at 48 h in data set [3] (CC50) and in data set [3] (pCC50) was 22.4 µM throughout.
Turning to `CCOC1O[C@H]([C@@H](COCc2ccccc2)OCc2ccccc2)[C@H](OCc2ccccc2)[C@H]1O` (stereo partly drawn) [TRIBENOSIDE], the IC50 in data set [2], in data set [2] (read-out: pIC50 (converted)), in data set [4] (setting [6]) and in data set [4] (setting [7]) was greater than 50.1 µM each time. Also, the CC50 at 48 h in data set [3] (CC50) and in data set [3] (pCC50) was 17.4 µM throughout.
In the case of `CN1CCN(CCCN2c3ccccc3Sc3ccc(C(F)(F)F)cc32)CC1` [TRIFLUOPERAZINE], the IC50 was 6.46 µM in data set [2], 6.46 µM in data set [2] (read-out: pIC50 (converted)), greater than 100 µM in data set [4] (setting [6]) and greater than 100 µM in data set [4] (setting [7]). Further, the CC50 at 48 h in data set [3] (CC50) and in data set [3] (pCC50) was 7.94 µM each time.
Consider `CC[C@@H]1C(=O)N(C)c2cnc(Nc3ccc(C(=O)N[C@H]4CC[C@H](N5CCN(CC6CC6)CC5)CC4)cc3OC)nc2N1C(C)C` [VOLASERTIB], for which the IC50 in data set [2], in data set [2] (read-out: pIC50 (converted)), in data set [4] (setting [6]) and in data set [4] (setting [7]) was greater than 50.1 µM throughout. The CC50 at 48 h in data set [3] (CC50) and in data set [3] (pCC50) was 0.234 µM in each case.
For the compound `CN(C)CCOC1=Cc2ccccc2Sc2ccc(Cl)cc21` [ZOTEPINE], the IC50 in data set [2], in data set [2] (read-out: pIC50 (converted)), in data set [4] (setting [6]) and in data set [4] (setting [7]) was greater than 100 µM throughout. The CC50 at 48 h in data set [3] (CC50) and in data set [3] (pCC50) was 12.3 µM in each case.
On to `OCCN1CCN(CC/C=C2/c3ccccc3Sc3ccc(Cl)cc32)CC1` [ZUCLOPENTHIXOL], for which the IC50 in data set [1] was 7.24 µM and > 20 µM; in data set [4] (setting [6]), greater than 100 µM; in data set [4] (setting [7]) it was greater than 100 µM. Also, in data set [1], the pIC50 is 5.14 and < 4.7. Further, the CC50 at 48 h was 6.68 µM in data set [3] (CC50) and 6.61 µM in data set [3] (pCC50).
Regarding ATSM COPPER (II), in data set [1], the IC50 is greater than 20 µM and the negative logarithm of the IC50 (pIC50) is reported as less than 4.7.
Turning to FLUPENTIXOL, the IC50 in data set [1] was 8.71 µM and > 20 µM; in data set [4] (vero c1008, read-out: IC50), greater than 100 µM. Moreover, the negative-log IC50 (pIC50) in data set [1] is 5.06 and < 4.7; in data set [4] (vero c1008), less than 4. The compound further came in with a CC50 in data set [5] of 7.67 µM. The same compound came in with a pCC50 in data set [5] of 5.12.
Consider NYSTATIN, for which, in data set [1], the IC50 was greater than 20 µM and the negative-log IC50 (pIC50) is reported as less than 4.7.
For RAUWOLFIA SERPENTINA the same measures were greater than 20 µM and less than 4.7.
